Test results taken from PMC8989888, “Development of optimized drug-like small molecule inhibitors of the SARS-CoV-2 3CL protease for treatment of COVID-19” (Nature Communications, 2022).
Several values for one entry are separate records, joined by “and”; a condition that tells them apart may be missing. Identical values can stand only once. Like-named read-outs stand apart in the source and are kept apart here.

Biological target: SARS-CoV-2 3CL protease (Severe acute respiratory syndrome coronavirus 2, UniProt P0DTD1)
Assay: biochemical
Conditions: for activity against SARS-CoV-2 3CL protease (in words): compound 4 analogs
[1] = 0.2 µM protease with 50 µM tested compound, replicates
[2] = 200 nM protease, read-out: IC50

O=S(=O)(NCc1ccccc1)c1cccnc1 [AZVIII-44E]
Normalized SARS-CoV-2 3CL protease activity [1]: 1.222 and 1.184 and 1.143
IC50 [2]: > 50 µM

CC(C)(C)OC(=O)NC(CO)CC1CCNC1=O (stereo not shown) [AZVIII-30]
Normalized SARS-CoV-2 3CL protease activity [1]: 0.9915 and 0.9651 and 0.9186
IC50 [2]: > 50 µM
activity against SARS-CoV-2 3CL protease (in words): did not produce active compounds

O=S(=O)(NCc1ccncn1)c1cccnc1 [AZVIII-49C]
Normalized SARS-CoV-2 3CL protease activity [1]: 1.015 and 1.0173 and 1.005
IC50 [2]: > 50 µM

CS(=O)(=O)c1ncccc1C#N [NT-1-24]
Normalized SARS-CoV-2 3CL protease activity [1]: 0.9913 and 0.611 and 0.8892

CS(=O)(=O)c1nc(C(F)(F)F)ccc1C#N [NT-1-32]
Normalized SARS-CoV-2 3CL protease activity: 0.9191 and 0.9056 and 0.7525

CC(C)(C)OC(=O)NC(C=O)CC1CCNC1=O (stereo not shown) [AZVIII-42]
Normalized SARS-CoV-2 3CL protease activity [1]: 0.09531 and 0.1273 and 0.138
IC90 (200 nM protease): > 50 µM
activity against SARS-CoV-2 3CL protease (in words): functioned slightly better

CCOC(=O)/C=C/[C@H](C[C@@H]1CCNC1=O)NC(=O)[C@H](CC(C)C)NC(=O)OC(C)(C)C [AZVIII-33B]
Normalized SARS-CoV-2 3CL protease activity [1]: 1.107 and 0.6918 and 1.159
IC50 [2]: > 50 µM
activity against SARS-CoV-2 3CL protease (in words): inactive

COc1ccc(CNS(=O)(=O)c2cccnc2)cc1 [AZVIII-44H]
Normalized SARS-CoV-2 3CL protease activity [1]: 0.9803 and 0.9852 and 1.015
IC50 [2]: > 50 µM

O=c1[nH]sc2ccccc12 [AZVIII-40A, 1,2-Benzisothiazol-3(2H)-one, reference compound]
IC50 (IC50): 0.79 µM

CC(C)(C)OC(=O)NC(CC1CCNC1=O)Cn1sc2ccccc2c1=O (stereo not shown) [AZVIII-43A]
Normalized SARS-CoV-2 3CL protease activity [1]: 1.104 and 1.129 and 1.238
IC50 [2]: > 50 µM
activity against SARS-CoV-2 3CL protease (in words): did not produce active compounds

O=S(=O)(NCc1cccnc1)c1cccnc1 [AZVIII-44B]
Normalized SARS-CoV-2 3CL protease activity [1]: 1.138 and 1.193 and 1.162
IC50 [2]: > 50 µM

O=S(=O)(NCc1ccncn1)c1ccccc1 [AZVIII-49F]
Normalized SARS-CoV-2 3CL protease activity [1]: 1.058 and 1.081 and 1.099
IC50 [2]: > 50 µM

CC(C)C[C@H](NC(=O)OC(C)(C)C)C(=O)N[C@H](CO)C[C@@H]1CCNC1=O [AZVIII-37A]
Normalized SARS-CoV-2 3CL protease activity [1]: 0.8312 and 1.007 and 1.0118
IC50 [2]: > 50 µM
activity against SARS-CoV-2 3CL protease (in words): inactive

COC(=O)[C@H](C[C@@H]1CCNC1=O)NC(=O)OC(C)(C)C [AZVIII-38]
Normalized SARS-CoV-2 3CL protease activity [1]: 1.058 and 1.088 and 0.9126
IC50 [2]: > 50 µM
activity against SARS-CoV-2 3CL protease (in words): did not produce active compounds
